Laboratory results reported in patent US5162322A, “Method of treating anxiety with 5-[(4-aryl or heteroaryl-1-piperazinyl]alkyl)-2-oxazolidinones” (A. H. Robbins Company, Incorporated, priority 1991, dated 1992).
Structures can show the parent of a compound that is named as a salt. Where two headings read alike, the source gives them in different places.

Experiments:
mice = test: exploratory light/dark method in mice (two-compartment light-dark activity box); assay type: in vivo; conditions: for minimal effective dose: Mus musculus, read-out: Light/Dark: minimum effective dose; for Light/Dark: % time spent in lit area: at minimum effective dose
Procedure: (§1) Anxiolytic properties were determined using an in vitro assay in which competive binding with the 5-HT1A specific agonist, [^3 H]8-hydroxy-2-(di-n-propylamino)tetralin(8-OH-DPAT) to 5HT1A receptors in the dog hippocampus membrane preparation is measured [Hall et al, J. Neurochem. […] Several compounds were also tested in mice is the exploratory light/dark method as described by Young and Johnson, Soc. […] 1988, 14, 207 in which the exploratory behavior of a mouse is a two-compartment light-dark activity box is monitored electrically and behavioral variables such as time spent in the lit versus dark compartments, rearings in either of the two compartments, number of transitions between the two compartments and other exploratory behavioral variables are recorded.

5HT1A receptors = target: T1, 5HT1A receptors (Canis lupus familiaris, UniProt Q6XXX9); test: biochemical; assay type: binding, dog
T1 sequence (Q6XXX9 1-423): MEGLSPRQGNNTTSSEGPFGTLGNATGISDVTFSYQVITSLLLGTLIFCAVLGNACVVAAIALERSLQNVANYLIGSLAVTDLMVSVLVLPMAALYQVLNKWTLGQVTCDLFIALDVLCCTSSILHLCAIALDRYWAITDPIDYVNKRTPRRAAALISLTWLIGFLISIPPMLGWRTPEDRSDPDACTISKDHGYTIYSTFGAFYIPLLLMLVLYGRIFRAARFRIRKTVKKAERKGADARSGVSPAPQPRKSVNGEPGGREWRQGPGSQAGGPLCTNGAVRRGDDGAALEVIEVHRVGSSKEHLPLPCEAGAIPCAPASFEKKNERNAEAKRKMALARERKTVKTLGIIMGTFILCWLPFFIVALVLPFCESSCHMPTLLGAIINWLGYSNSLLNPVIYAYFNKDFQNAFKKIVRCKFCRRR
Procedure: as §1

[1] = competitive binding vs [^3 H]8-OH-DPAT, dog hippocampus membrane, buspirone value is an average, read-out: 5HT1A IC50

SMILES | IC50 (5HT1A receptors; [1]) [nM] | also measured
O=C1CC2(CCCC2)CC(=O)N1CCCCN1CCN(c2ncccn2)CC1 [Buspirone, buspirone, reference compound] |  | minimal effective dose (mice; ip): 5.62 mg/kg; minimal effective dose (mice; po): 5.62 mg/kg; Light/Dark: % time spent in lit area (mice; mice, IP): 51%; Light/Dark: % time spent in lit area (mice; mice, PO): 54%; IC50 (5HT1A receptors): 13.2 nM
CN1CC(CCCCN2CCN(c3ccccc3)CC2)OC1=O (stereo not drawn) [Example 1, 3-Methyl-5-[4-(4-phenyl-1-piperazinyl)butyl]-2-oxazolidinone] | 59 | minimal effective dose (mice; mice, IP): 10 mg/kg; Light/Dark: % time spent in lit area (mice; mice, IP): 56%
CN1CC(CCCCN2CCN(c3ccccn3)CC2)OC1=O (stereo not drawn) [Example 2, 3-Methyl-5-[4-[4-(2-pyridinyl)-1-piperazinyl]butyl]-2-oxazolidinone] | 61 | minimal effective dose (mice; mice, IP): 3.16 mg/kg; Light/Dark: % time spent in lit area (mice; mice, IP): 53%
COc1ccccc1N1CCN(CCCCC2CN(C)C(=O)O2)CC1.Cl.Cl (stereo not drawn) [Example 3, 5-[4-[4-(2-Methoxyphenyl)-1-piperazinyl]butyl]-3-methyl-2-oxazolidinone dihydrochloride] | 15 | minimal effective dose (mice; mice, IP): 3.16 mg/kg; Light/Dark: % time spent in lit area (mice; mice, IP): 53%
CN1CC(CCCCN2CCN(c3ncccn3)CC2)OC1=O (stereo not drawn) [Example 4, 3-Methyl-5-[4-[4-(2-pyrimidinyl)-1-piperazinyl]butyl]-2-oxazolidinone] | 190 | 
COc1ccccc1N1CCN(CCCC2CN(C)C(=O)O2)CC1 (stereo not drawn) [Example 5, 5-[3-[4-(2-Methoxyphenyl)-1-piperazinyl]propyl]-3-methyl-2-oxazolidinone hydrochloride hydrate (2:2:3)] | 29 | 
CN1CC(CCCN2CCN(c3ccccn3)CC2)OC1=O (stereo not drawn) [Example 6, 3-Methyl-5-[3-[4-(2-pyridinyl)-1-piperazinyl]propyl]-2-oxazolidinone hydrochloride hydrate (2:4:1)] | 110 | 
CN1CC(CCCN2CCN(c3ncccn3)CC2)OC1=O (stereo not drawn) [Example 7, 3-Methyl-5-[3-[4-(2-pyrimidinyl)-1-piperazinyl]propyl]-2-oxazolidinone] | 510 | 
CCOc1ccccc1N1CCN(CCCC2CN(C)C(=O)O2)CC1 (stereo not drawn) [Example 8, 5-[3-[4-(2-Ethoxyphenyl)-1-piperazinyl]propyl]-3-methyl-2-oxazolidinone] | 22 | 
CCOc1ccccc1N1CCN(CCCCC2CN(C)C(=O)O2)CC1 (stereo not drawn) [Example 9, 5-[4-[4-(2-Ethoxyphenyl)-1-piperazinyl]butyl]-3-methyl-2-oxazolidinone dihydrochloride] | 16 | 
CN1CC(CCCN2CCN(c3ccccc3O)CC2)OC1=O (stereo not drawn) [Example 10, 5-[3-[4-(2-hydroxyphenyl)-1-piperazinyl]propyl]-3-methyl-2-oxazolidinone] | 110 | 
CN1CC(CCCCN2CCN(c3ccccc3O)CC2)OC1=O (stereo not drawn) [Example 11, 5-[4-[4-(2-Hydroxyphenyl)-1-piperazinyl]butyl]-3-methyl-2-oxazolidinone] | 40 | 
C=CCOc1ccccc1N1CCN(CCCCC2CN(C)C(=O)O2)CC1 (stereo not drawn) [Example 12, 8-methyl-5-[4-[4-[2(2-propenyloxy)phenyl]-1-piperazinyl]butyl]-2-oxazolidinone hydrochloride hydrate (2:4:1)] | 20 | minimal effective dose (mice; mice, IP): 1 mg/kg; Light/Dark: % time spent in lit area (mice; mice, IP): 66%
O=C1OC(CCCCN2CCN(c3ncccn3)CC2)CN1c1ccccc1 (stereo not drawn) [Example 15, 3-Phenyl-5-[4-[4-(2-pyrimidinyl)-1-piperazinyl]butyl]-2-oxazolidinone] | 29 | 
O=C1OC(CCCN2CCN(c3ncccn3)CC2)CN1c1ccccc1 (stereo not drawn) [Example 20, 3-Phenyl-5-[3-[4-(2-pyrimidinyl)-1-piperazinyl]propyl]2-oxazolidinone] | 170 | 

The next lines start with results.

IC50 (5HT1A receptors; [1]) [nM] | SMILES | also measured
2.2 | COc1ccccc1N1CCN(CCCCC2CN(c3ccccc3)C(=O)O2)CC1 (stereo not drawn) [Example 13, 5-[4-[4-(2-Methoxyphenyl)-1-piperazinyl]butyl]-3-phenyl-2-oxazolidinone hydrochloride hydrate (2:2:1)] | 
7.7 | O=C1OC(CCCCN2CCN(c3ccccn3)CC2)CN1c1ccccc1 (stereo not drawn) [Example 14, 3-Phenyl-5-[4-[4-(2-pyridinyl)-1-piperazinyl]butyl]-2-oxazolidinone] | 
8.2 | O=C1OC(CCCCN2CCN(c3ccccc3)CC2)CN1c1ccccc1 (stereo not drawn) [Example 16, 3-Phenyl-5-[4-(4-phenyl-1-piperazinyl)butyl]-2-oxazolidinone] | 
15 | O=C1OC(CCCCN2CCN(c3ccccc3O)CC2)CN1c1ccccc1 (stereo not drawn) [Example 17, 5-[4-[4-(2-hydroxyphenyl)-1-piperazinyl]butyl]-3-phenyl-2-oxazolidinone] | 
2 | CCOc1ccccc1N1CCN(CCCCC2CN(c3ccccc3)C(=O)O2)CC1 (stereo not drawn) [Example 18, 5-[4-[4-(2-Ethoxyphenyl)-1-piperazinyl]butyl]-3-phenyl-2-oxazolidinone hydrochloride hydrate (2:4:1)] | 
57 | O=C1OC(CCCN2CCN(c3ccccn3)CC2)CN1c1ccccc1 (stereo not drawn) [Example 19, 3-Phenyl-5-[3-[4-(2-pyridinyl)-1-piperazinyl]propyl]-2-oxazolidinone] | 
18 | CCOc1ccccc1N1CCN(CCCC2CN(c3ccccc3)C(=O)O2)CC1 (stereo not drawn) [Example 21, 5-[3-[4-(2-Ethoxyphenyl)-1-piperazinyl]propyl]-3-phenyl-2-oxazolidinone hydrochloride hydrate (2:4:1)] | 
50 | O=C1OC(CCCN2CCN(c3ccccc3)CC2)CN1c1ccccc1 (stereo not drawn) [Example 22] | 
11 | COc1ccccc1N1CCN(CCCC2CN(c3ccccc3)C(=O)O2)CC1 (stereo not drawn) [Example 23, 5-[3-[4-(2-Methoxyphenyl)-1-piperazinyl]propyl]-3-phenyl-2-oxazolidinone hydrochloride hydrate (1:2)] | 
